Experiment [1] deals with A-549 human lung carcinoma cells. Kind of experiment: Cytotoxicity, resazurin metabolism assay, A-549. The experiment is classed as cell-based. As to conditions: 48 h, mean ± SD. In outline:
(§1)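 Cells plated at 5×10^3/well, adhered 16 h, then exposed to increasing compound concentrations (DMSO) for 48 h. Viability by resazurin reduction, fluorescence ex 530/em 590 nm, blank-subtracted versus control wells; IC50 as mean±SD from three experiments in triplicate.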

In experiment [2] the test system is DLD-1 human colorectal adenocarcinoma cells. As to the kind of experiment: Cytotoxicity, resazurin metabolism assay, DLD-1. The experiment is classed as cell-based. As to conditions: 48 h, mean ± SD. In outline:
as §1
(In general: The colour change of resazurin is a common sign of viable cells or microbes.)

Experiment [3] deals with B16-F1 mouse melanoma cells. Kind of experiment: Cytotoxicity, resazurin metabolism assay, B16-F1. The experiment is classed as cell-based. Particulars: 48 h, mean ± SD. The essentials: as §1
Experiment [4] relates to WS-1 human normal skin fibroblasts. Kind of experiment: Cytotoxicity, resazurin metabolism assay, WS-1. Type of experiment: cell-based. Particulars: 48 h, mean ± SD. The essentials: as §1
A further experiment has as its system A-549 cells. As to the kind of experiment: Cytotoxicity, Hoechst DNA assay, A-549. Type of experiment: cell-based, human. As to conditions: ± SD. The essentials: (§2)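 Cells grown at 37 °C, 5% CO2, in MEM with 10% FBS. Compound cytotoxicity was measured by Hoechst DNA staining. Activity is expressed as IC50, the concentration inhibiting 50% of cell growth.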
The subject of another experiment is DLD-1 cells. As to the kind of experiment: Cytotoxicity, Hoechst DNA assay, DLD-1. As to conditions: ± SD. Type of experiment: cell-based, human. In outline: as §2
A further experiment concerns B16-F1 cells. As to the kind of experiment: Cytotoxicity, Hoechst DNA assay, B16-F1. The experiment is classed as cell-based, mouse. As to conditions: ± SD. In outline:
as §2

The test system of the next experiment is WS-1 cells. As to the kind of experiment: Cytotoxicity, Hoechst DNA assay, WS-1. Type of experiment: cell-based, human. As to conditions: ± SD. The essentials:
as §2

Experiment [5] deals with NO production in lipopolysaccharide (LPS) stimulated cells. Particulars: read-out: IC50 (NO production); cells stimulated with 100 ug/ml LPS, 24 h, Griess reaction.
Method: Exponentially growing cells were plated in 24-well microplates (BD Falcon) at a density of 2×10^5 cells per well in 400 μl of culture medium and were allowed to adhere overnight. Cells were then treated or not with positive control N(G)-nitro-L-arginine methyl ester (L-NAME), or increasing concentrations of methanol extracts dissolved in the appropriate solvents, and incubated at 37° C., 5% CO2 for 24 h. The final concentration of solvent in the culture medium was maintained at 0.5% (volume/volume) to avoid solvent toxicity. Cells were then stimulated with 100 ug/ml lipopolysaccharide (LPS). After 24 h, cell-free supernatants were collected and stored at −80° C. until NO determination using the Griess reaction (Green et al. 1990) with minor modifications. Briefly, 100 μl aliquots of cell supernatants were incubated with 50 μl of 1% sulfanilamide and 50 μl of 0.1% N-1-naphtylethylenediamine dihydrochloride in 2.5% H3PO4 at room temperature for 20 min. Absorbance at 540 nm was then measured using an automated 96-well Varioskan Ascent™ plate reader (Thermo Electron) and the presence of nitrite was quantified by comparison with an NaNO2 standard curve.
In a further experiment the test system is Lewis lung carcinoma. Kind of experiment: In vivo antitumoral activity against Lewis lung cancer-bearing mice. Particulars: day 13. On the set-up: species or system C57BL/6 mouse. How it is done: Cell lines and mice preparation: The Lewis lung carcinoma cell lines (#CRL-1642, lot # 4372266, ATCC) and the C57BL/6 mouse strain (Charles River Inc., St-Constant, Qc) were used. Cells were grown to 90% confluence in complete DMEM medium containing Earle's salts and L-glutamine (Mediatech Cellgro, Va.), 10% foetal bovine serum (Hyclone), vitamins (1×), penicillin (100 I.U./mL) and streptomycin (100 μg/mL), essential amino acids (1×) and sodium pyruvate (1×) (Mediatech Cellgro, Va.). Cells were then harvested with up and down only. Cells were counted using a hemacytometer and resuspended in DMEM medium without SVF. 100 μL of a solution containing 1×10^7 cells/mL was inoculated subcutaneously in the right flank of each 6 weeks old mouse on day zero.
The experimental mice were weighed daily.
Data analysis: In vivo antitumor activity was evaluated according to the parameters as follows (Miot-Noirault, E. et al. Invest. New Drugs 2004, 22, 369-378):
(a) Calculated tumour weight (CTW): The CTW of each tumour was estimated from two-dimensional measurements performed once a day with a slide calliper, according to the formula: CTW (mg)=(L×W^2)/2 with L=length in mm and W=width in mm. Differences in CTW between treated and control groups (DMSO) were analyzed for significance using the U Wilcoxon-Mann-Whitney test and Student t-test. Values of p<0.05 were considered statistically significant.
(b) Treated/Control value (T/C) and Tumour Growth Inhibition (TGI):The T/C was calculated as the ratio of the mean CTW of TW of drug-treated mice versus controls: T/C=(CTW of the drug-treated group on Day X/CTW of the control group on Day X)×100. TGI is 100−(T/C) value.

Experiment [6] has as its system Walker 256 murine carcinosarcoma. Particulars: cited from earlier work.
Experiment [7] deals with L1210 murine lymphocytic leukemia. Particulars: 200 mg/kg; cited from earlier work.

For orientation: IC50 means the concentration that gives 50% inhibition. In the case of `C=C(C)C1CCC2(COC3OCC(O)C(O)C3O)CCC3(C)C(CCC4C5(C)CCC(O)C(C)(C)C5CCC43C)C12` [Compound 17, 28-O-α-D-Arabinopyranoside of Betulin], the half-maximal inhibitory concentration (IC50) was > 175 µM in experiment [1]; > 175 µM in experiment [2]; > 175 µM in experiment [3]; > 175 µM in experiment [4]; > 194 µM in the experiment on A-549 cells; > 194 µM in the experiment on DLD-1 cells. Further, the IC50 was > 194 µM with B16-F1 cells, > 194 µM in the experiment on WS-1 cells and 25 ± 1 µM in experiment [5].
As to `C=C(C)[C@@H]1CC[C@]2(C(=O)O)CC[C@]3(C)[C@H](CC[C@@H]4[C@@]5(C)CC[C@H](O)C(C)(C)[C@@H]5CC[C@]43C)[C@@H]12` [Compound 3, Betulinic acid, reference compound], the IC50 in experiment [1] was 10.3 ± 0.4 µM; in experiment [2], 15 ± 0.3 µM; in experiment [3], 16.1 ± 0.5 µM; in [4] it was 12 ± 1 µM; in the experiment on A-549 cells it was 8 ± 1 µM; in the experiment on DLD-1 cells, 12 ± 1 µM. In addition, the IC50 in the experiment on B16-F1 cells amounted to 18 ± 2 µM; with WS-1 cells, 14 ± 2 µM. The “CTW (calculated tumour weight)” value is on record as 294 ± 69 mg with Lewis lung carcinoma (50 mg/kg IP every 3-4 days), 264 ± 58 mg with Lewis lung carcinoma (100 mg/kg IP every 3-4 days) and 265 ± 58 mg with Lewis lung carcinoma (200 mg/kg IP every 3-4 days). The “T/C (Treated/Control)” value in the experiment on Lewis lung carcinoma (50 mg/kg IP) is recorded as 90%; with Lewis lung carcinoma (100 mg/kg IP), 81%; in the experiment on Lewis lung carcinoma (200 mg/kg IP), 81%. In addition, the “TGI (Tumour Growth Inhibition)” value in the experiment on Lewis lung carcinoma (50 mg/kg IP) worked out at 10%; with Lewis lung carcinoma (100 mg/kg IP), 19%; in the experiment on Lewis lung carcinoma (200 mg/kg IP), 19%. For the same compound, the “Activity in the Walker 256 model (subsequent report)” value in [6] (400 mg/kg) was “inactive”. The “Activity against the Walker 256 murine carcinosarcoma tumor system” value in experiment [6] (dose levels of 300 and 500 mg/kg body weight) is “dose-dependent activity”. For the same compound, the “Activity in the L1210 murine lymphocytic leukemia model” value in [7] is “inactive”.

The values above are taken from patent publication US20100331269A1, “TRITERPENES DERIVATIVES AND USES THEREOF AS ANTITUMOR AGENTS OR ANTI-INFLAMMATORY AGENTS” (priority 2006, published 2010).
